The target in experiment [1] is T1, Epidermal growth factor receptor [DEL746-750,T790M,C797S] (Homo sapiens, UniProt P00533, C797S/DEL746-750/T790M).
T1 construct: gene EGFR
The experiment can be described thus: Measurement of Inhibitory Ability of the Compounds Represented by Formula 1 According to the Present Invention Against Wild Type EGFR and EGFR Mutants. The procedure:
(§1) An experiment to measure the activity of the compounds of the present invention against EGFR mutant enzymes was performed as follows using the HTRF system sold by Cisbio. For the EGFR del19/T790M mutant enzyme, a recombinant protein provided by Carna Biosciences was purchased and used, and for the EGFR del19/T790M/C797S mutant enzyme, a protein provided by SignalChem was purchased and used as an enzyme source.The composition of the assay buffer used for measuring the activity was 50 mM Tris-HCl pH 7.5, 100 mM NaCl, 7.5 mM MgCl2, 3 mM KCl, 0.01% Tween 20, 0.1% BSA, and 1 mM DTT. Here, an enzyme reaction was performed using […] and a peptide substrate labeled with biotin at a concentration of 0.5 mM. Analysis of the inhibitory effect of the compounds against the EGFR activity was conducted according to the following analysis reaction recipe.Component 1: 4 μL of an EGFR mutant enzymeComponent 2: 2 μL of a compound solutionComponent 3: 4 μL of ATP and a peptide labeled with biotinThe enzyme reaction was started by first mixing Component 1 and Component 2 and then adding Component 3. After reaction at 37° C. for 2 hours, […] consisting of streptavidin-XL665 and europium-labeled anti-phosphotyrosine antibody provided by Cisbio was added to the enzyme reaction solution and reacted at room temperature for 1 hour. Finally, the ratio of fluorescence values at 615 nm and 665 nm was obtained using the Envision equipment from Perkin-Elmer to quantitatively measure the enzyme activity and confirmed the inhibitory ability of the compounds.

The target of experiment [2] is T2, Epidermal growth factor receptor [DEL746-750,T790M] (Homo sapiens, UniProt P00533, DEL746-750/T790M).
T2 construct: gene EGFR
The description is as above. The procedure: as §1

Where only a bound is given, the exact number is not on record here.

T2 sequence (P00533 with tags, fused parts or gaps DEL746-750/T790M limits assumed): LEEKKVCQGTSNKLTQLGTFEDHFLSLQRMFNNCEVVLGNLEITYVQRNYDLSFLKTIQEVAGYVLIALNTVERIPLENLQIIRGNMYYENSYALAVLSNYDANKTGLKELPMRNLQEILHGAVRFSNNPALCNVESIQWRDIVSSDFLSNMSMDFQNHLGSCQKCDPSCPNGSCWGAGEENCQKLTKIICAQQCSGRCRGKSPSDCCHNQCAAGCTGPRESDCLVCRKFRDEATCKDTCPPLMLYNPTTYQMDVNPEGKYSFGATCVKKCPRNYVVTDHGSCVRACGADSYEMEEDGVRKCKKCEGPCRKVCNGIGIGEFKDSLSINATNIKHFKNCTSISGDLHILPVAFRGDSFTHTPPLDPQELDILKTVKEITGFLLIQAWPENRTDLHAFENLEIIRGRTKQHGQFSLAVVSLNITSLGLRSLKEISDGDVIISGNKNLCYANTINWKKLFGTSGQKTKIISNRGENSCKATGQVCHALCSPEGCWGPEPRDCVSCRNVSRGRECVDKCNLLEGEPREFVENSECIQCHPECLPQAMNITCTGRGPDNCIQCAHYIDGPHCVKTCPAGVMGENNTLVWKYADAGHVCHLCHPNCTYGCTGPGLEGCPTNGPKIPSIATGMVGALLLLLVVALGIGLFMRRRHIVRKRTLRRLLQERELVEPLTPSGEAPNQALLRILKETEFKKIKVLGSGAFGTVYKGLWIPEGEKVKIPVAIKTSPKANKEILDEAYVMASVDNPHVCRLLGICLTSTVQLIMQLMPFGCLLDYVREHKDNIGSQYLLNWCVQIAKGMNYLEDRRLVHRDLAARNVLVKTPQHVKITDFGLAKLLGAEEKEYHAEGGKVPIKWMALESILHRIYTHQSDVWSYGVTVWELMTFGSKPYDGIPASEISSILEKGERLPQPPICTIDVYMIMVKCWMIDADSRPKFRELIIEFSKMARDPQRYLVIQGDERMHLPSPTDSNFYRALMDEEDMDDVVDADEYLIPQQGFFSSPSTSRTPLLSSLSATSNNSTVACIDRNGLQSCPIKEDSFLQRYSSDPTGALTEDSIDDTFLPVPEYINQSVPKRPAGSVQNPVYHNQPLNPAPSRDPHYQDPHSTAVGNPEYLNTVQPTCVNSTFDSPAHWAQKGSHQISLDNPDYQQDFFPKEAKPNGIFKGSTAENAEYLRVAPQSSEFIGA
T1 sequence (P00533 with tags, fused parts or gaps C797S/DEL746-750/T790M limits assumed): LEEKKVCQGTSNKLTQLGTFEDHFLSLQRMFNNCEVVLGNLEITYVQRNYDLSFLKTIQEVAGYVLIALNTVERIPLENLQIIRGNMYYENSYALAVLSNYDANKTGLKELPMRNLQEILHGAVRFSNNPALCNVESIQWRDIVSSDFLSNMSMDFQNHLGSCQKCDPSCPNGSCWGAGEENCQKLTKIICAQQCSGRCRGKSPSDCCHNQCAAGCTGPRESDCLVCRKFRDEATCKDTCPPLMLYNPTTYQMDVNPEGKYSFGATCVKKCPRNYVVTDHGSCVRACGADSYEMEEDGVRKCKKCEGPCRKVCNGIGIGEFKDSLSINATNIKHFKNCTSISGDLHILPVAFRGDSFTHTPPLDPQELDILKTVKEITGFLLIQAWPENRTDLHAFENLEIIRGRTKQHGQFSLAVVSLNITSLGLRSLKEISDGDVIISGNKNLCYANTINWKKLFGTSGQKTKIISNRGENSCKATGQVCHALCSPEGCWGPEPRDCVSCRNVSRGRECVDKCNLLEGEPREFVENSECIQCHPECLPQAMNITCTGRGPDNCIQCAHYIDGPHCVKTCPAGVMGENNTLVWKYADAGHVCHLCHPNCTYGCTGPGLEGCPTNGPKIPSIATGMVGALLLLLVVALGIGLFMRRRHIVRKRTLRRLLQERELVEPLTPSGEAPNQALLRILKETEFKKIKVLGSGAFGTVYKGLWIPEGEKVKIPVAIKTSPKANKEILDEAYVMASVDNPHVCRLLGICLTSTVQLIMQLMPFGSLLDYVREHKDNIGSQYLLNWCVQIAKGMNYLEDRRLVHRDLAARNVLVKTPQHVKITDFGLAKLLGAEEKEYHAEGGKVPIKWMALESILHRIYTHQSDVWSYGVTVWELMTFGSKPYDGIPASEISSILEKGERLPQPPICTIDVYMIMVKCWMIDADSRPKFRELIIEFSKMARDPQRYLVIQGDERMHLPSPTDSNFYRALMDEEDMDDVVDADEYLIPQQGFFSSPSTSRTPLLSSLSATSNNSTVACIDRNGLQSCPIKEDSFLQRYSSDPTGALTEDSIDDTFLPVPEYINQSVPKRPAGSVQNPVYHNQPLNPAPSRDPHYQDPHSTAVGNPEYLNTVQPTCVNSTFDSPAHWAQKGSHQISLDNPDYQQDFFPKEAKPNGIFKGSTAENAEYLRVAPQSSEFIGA

In the case of `COc1cc(N(C)CCN(C)C)ccc1Nc1ncc(Cl)c(Nc2cccc3c2N(S(C)(=O)=O)CC3)n1` [US20240352000, Example 3], the IC50 (as a rule, the concentration that gives 50% inhibition) in experiment [1] is < 0.001 µM.

In the case of `COc1cc(N2CCC(N3CCN(C)CC3)CC2)ccc1Nc1ncc(Cl)c(Nc2cccc3c2N(C(C)=O)CC3)n1` [US20240352000, Example 12], the IC50 in experiment [1] is < 0.001 µM.

As to `CCS(=O)(=O)N1CCc2cccc(Nc3nc(Nc4ccc(N5CCC(N6CCN(C)CC6)CC5)cc4OC)ncc3Cl)c21` [US20240352000, Example 13], in experiment [2], the IC50 was < 0.001 µM.

Consider `CCC(=O)N1CCc2cccc(Nc3nc(Nc4ccc(N5CCC(N6CCN(C)CC6)CC5)cc4OC)ncc3Cl)c21` [US20240352000, Example 14], for which the IC50 in experiment [1] came out at 0.05 µM; in experiment [2], 0.091 µM.

With `COc1cc(N2CCC(N3CCN(C)CC3)CC2)ccc1Nc1ncc(Cl)c(Nc2cccc3c2N(C(C)=O)CCC3)n1` [US20240352000, Example 15], the IC50 in experiment [1] amounted to 0.056 µM; in experiment [2], 0.073 µM.

On to `COc1cc(N2CCC(N3CCNCC3)CC2)ccc1Nc1ncc(Cl)c(Nc2cccc3c2N(S(C)(=O)=O)CC3)n1` [US20240352000, Example 17], for which the IC50 in experiment [1] was < 0.001 µM.

The values above are taken from BindingDB's records for patent US20240352000 (Korea Research Institute of Chemical Technology, 2024).
